Values of other authors in EP0527762B1, “INHIBITION OF ALLOGRAFT AND […] REJECTION” (priority 1990, dated 1991).

Test system: rabbit kidney xenografts
Conditions: rabbit kidney into cats, discordant

Row | Compound | prevention of hyperacute rejection
1 | C[C@H](CS)C(=O)N1CCC[C@H]1C(=O)O [captopril] | not prevented
2 | CCOC(=O)[C@H](CCc1ccccc1)N[C@@H](C)C(=O)N1CCC[C@H]1C(=O)O [enalapril] | not prevented
3 | CCCCC[C@H](O)/C=C/[C@@H]1[C@H]2C/C(=C/CCCC(=O)O)O[C@H]2C[C@H]1O [prostacyclin] | not prevented
4 | O=C(O)c1cc(=O)c2c(OCC(O)COc3cccc4oc(C(=O)O)cc(=O)c34)cccc2o1 [sodium chromoglycate] | not prevented
